Results from ChEMBL document CHEMBL1158331, “Insect Antifeedant Isoryanodane Diterpenes from Persea indica” (1997).

Legend:
Spodoptera litura [1] = assay: Antifeedant activity against Spodoptera litura third instar larvae by choice leaf disk assay; type: functional; design: unit not given here
Spodoptera litura [2] = assay: Antifeedant activity against Spodoptera litura third instar larvae assessed as feeding index at 1000 ppm by choice leaf disk assay; type: functional

| Compound | logEC50 (Spodoptera litura [1]) | Activity (Spodoptera litura [2]) |
| --- | --- | --- |
| C/C=C(\C)C(=O)O[C@H]1C[C@@H](OC(C)=O)[C@@]2(C(=O)OC)CO[C@H]3[C@@H](O)[C@@](C)([C@]45O[C@@]4(C)[C@@H]4C[C@H]5O[C@@H]5OC=C[C@@]54O)[C@H]4[C@]1(CO[C@]4(O)C(=O)OC)[C@@H]32 [AZADIRACHTIN A] | 0.25 |  |
| CC(C)[C@@]1(O)C[C@@]2(O)[C@@]3(C)C[C@]4(O)O[C@@]5([C@H](O)[C@@H](C)CC[C@]35O)[C@@]2(O)[C@@]41C [CINNZEYLANOL] | 1.93 |  |
| CC(C)[C@@H]1C[C@@H]2[C@@]3(O)[C@@H]4O[C@@](O)(C[C@]2(C)[C@]2(O)CC[C@H](C)[C@H]42)[C@]13C [INDICOL] | >3 | 49.39 |
| CC(C)[C@@]1(O)C[C@@]2(O)[C@]3(C)C[C@]4(O)O[C@H]([C@@]5(O)[C@@H](C)CC[C@]53O)[C@@]2(O)[C@]41C [PERSEANOL] | 2.23 | 11.43 |
| CC(C)[C@@]1(O)[C@@H](OC(=O)c2cc[nH]c2)[C@@]2(O)[C@]3(C)C[C@@]4(O)O[C@@]5([C@H](O)[C@@H](C)CC[C@]35O)[C@@]2(O)[C@@]41C [RYANODINE] | 1.15 |  |
| CC(C)[C@@]1(O)[C@@H](O)[C@@]2(O)[C@@]3(C)C[C@]4(O)O[C@@]5([C@H](O)[C@@H](C)CC[C@]35O)[C@@]2(O)[C@]14C [RYANODOL] | 2.18 |  |
| CC(C)[C@@]1(O)C[C@@]2(O)[C@]3(C)C[C@]4(O)O[C@H]([C@H]5[C@@H](C)CC[C@]53O)[C@@]2(O)[C@]41C [VIGNATICOL] | 1.97 | 12.57 |
